The values that follow are results of earlier work, collected in PubChem BioAssay AID1259409 (Chemical Carcinogenesis Research Information System (CCRIS), 2018).

The test system of the data set is rodent chemically induced tumor inhibition, incidence and multiplicity. The data set can be described thus: CCRIS tumor inhibitor studies.

As for `O=c1c(O)c(-c2ccc(O)c(O)c2)oc2cc(O)cc(O)c12`, the “tumour outcome (control, treated, inhibition, significance)” value is given as 13/50 (26%), 0/50 (0%), 100%, not calculated (Carcinogen: BENZO[A]PYRENE, 50-32-8, Dose [Inhibitor]: 25 MG IN 0.1 ML DMSO 3/WK, ADMINISTERED SIMULTANEOUSLY WITH CARCINOGEN FOR DURATION OF STUDY (STUDY DURATION: 368 D), Route [Inhibitor]: DERMAL, Species: MOUSE, Strain/Sex: ICR/FEMALE, Target Tissue: Type of Lesion: SKIN: PAPILLOMA, Dose [Carcinogen]: 5 UG IN 0.1 ML DMSO THAT ALSO CONTAINED AGENT 3/WK FOR DURATION OF STUDY, Promoter: NONE USED); 90%, 82%, 9%, not calculated (Carcinogen: BENZO[A]PYRENE, 50-32-8, Dose [Inhibitor]: 100 UG IN 0.2 ML ACETONE ONCE 5 MINUTES BEFORE CARCINOGEN TREATMENT (STUDY DURATION: 31 WK), Route [Inhibitor]: DERMAL, Species: MOUSE, Strain/Sex: CD-1/FEMALE, Target Tissue: Type of Lesion: SKIN: PAPILLOMA, Dose [Carcinogen]: 400 NMOL IN 0.2 ML ACETONE ONCE, Promoter: 12-O-TETRADECANOYLPHORBOL-13-ACETATE, 16561-29-8); 4/14 (29%), 4/13 (31%), -7%, not significant (Carcinogen: DIETHYLNITROSAMINE, 55-18-5, N-METHYLNITROSOUREA, 684-93-5, 1,2-DIMETHYLHYDRAZINE, 540-73-8, N-BUTYL-N-(4-HYDROXYB, Carcinogen: DIETHYLNITROSAMINE, 55-18-5, N-METHYLNITROSOUREA, 684-93-5, 1,2-DIMETHYLHYDRAZINE, 540-73-8, N-BUTYL-N-(4-HYDROXYB, Dose [Inhibitor]: 0, 1% IN DIET FOR 4 WK BEGINNING 1 DAY PRIOR TO CARCINOGEN TREATMENT (STUDY DURATION: 36 WK), Route [Inhibitor]: ORAL, Species: RAT, Strain/Sex: F344/MALE, Target Tissue: Type of Lesion: KIDNEY: ADENOMA, Dose [Carcinogen]: 100 MG/KG DEN ONCE, 20 MG/KG MNU 4 TIMES, 40 MG/KG DMH 4 TIMES, 0.05% BBN IN DRINKING WATER FOR 2 WK, 0.1% DHPN IN D, Dose [Carcinogen]: 100 MG/KG DEN ONCE, 20 MG/KG MNU 4 TIMES, 40 MG/KG DMH 4 TIMES, 0.05% BBN IN DRINKING WATER FOR 2 WK, 0.1% DHPN IN D, Promoter: NONE USED); 7/14 (50%), 6/13 (46%), 8%, not significant (Carcinogen: DIETHYLNITROSAMINE, 55-18-5, N-METHYLNITROSOUREA, 684-93-5, 1,2-DIMETHYLHYDRAZINE, 540-73-8, N-BUTYL-N-(4-HYDROXYB, Carcinogen: DIETHYLNITROSAMINE, 55-18-5, N-METHYLNITROSOUREA, 684-93-5, 1,2-DIMETHYLHYDRAZINE, 540-73-8, N-BUTYL-N-(4-HYDROXYB, Dose [Inhibitor]: 0, 1% IN DIET FOR 4 WK BEGINNING 1 DAY PRIOR TO CARCINOGEN TREATMENT (STUDY DURATION: 36 WK), Route [Inhibitor]: ORAL, Species: RAT, Strain/Sex: F344/MALE, Target Tissue: Type of Lesion: KIDNEY: NEPHROBLASTOMA, Dose [Carcinogen]: 100 MG/KG DEN ONCE, 20 MG/KG MNU 4 TIMES, 40 MG/KG DMH 4 TIMES, 0.05% BBN IN DRINKING WATER FOR 2 WK, 0.1% DHPN IN D, Dose [Carcinogen]: 100 MG/KG DEN ONCE, 20 MG/KG MNU 4 TIMES, 40 MG/KG DMH 4 TIMES, 0.05% BBN IN DRINKING WATER FOR 2 WK, 0.1% DHPN IN D, Promoter: NONE USED); 7/14 (50%), 5/13 (38%), 24%, not significant (Carcinogen: DIETHYLNITROSAMINE, 55-18-5, N-METHYLNITROSOUREA, 684-93-5, 1,2-DIMETHYLHYDRAZINE, 540-73-8, N-BUTYL-N-(4-HYDROXYB, Carcinogen: DIETHYLNITROSAMINE, 55-18-5, N-METHYLNITROSOUREA, 684-93-5, 1,2-DIMETHYLHYDRAZINE, 540-73-8, N-BUTYL-N-(4-HYDROXYB, Dose [Inhibitor]: 0, 1% IN DIET FOR 4 WK BEGINNING 1 DAY PRIOR TO CARCINOGEN TREATMENT (STUDY DURATION: 36 WK), Route [Inhibitor]: ORAL, Species: RAT, Strain/Sex: F344/MALE, Target Tissue: Type of Lesion: LARGE INTESTINE: ADENOMA, Dose [Carcinogen]: 100 MG/KG DEN ONCE, 20 MG/KG MNU 4 TIMES, 40 MG/KG DMH 4 TIMES, 0.05% BBN IN DRINKING WATER FOR 2 WK, 0.1% DHPN IN D, Dose [Carcinogen]: 100 MG/KG DEN ONCE, 20 MG/KG MNU 4 TIMES, 40 MG/KG DMH 4 TIMES, 0.05% BBN IN DRINKING WATER FOR 2 WK, 0.1% DHPN IN D, Promoter: NONE USED); 3/14 (21%), 5/13 (38%), -81%, not significant (Carcinogen: DIETHYLNITROSAMINE, 55-18-5, N-METHYLNITROSOUREA, 684-93-5, 1,2-DIMETHYLHYDRAZINE, 540-73-8, N-BUTYL-N-(4-HYDROXYB, Carcinogen: DIETHYLNITROSAMINE, 55-18-5, N-METHYLNITROSOUREA, 684-93-5, 1,2-DIMETHYLHYDRAZINE, 540-73-8, N-BUTYL-N-(4-HYDROXYB, Dose [Inhibitor]: 0, 1% IN DIET FOR 4 WK BEGINNING 1 DAY PRIOR TO CARCINOGEN TREATMENT (STUDY DURATION: 36 WK), Route [Inhibitor]: ORAL, Species: RAT, Strain/Sex: F344/MALE, Target Tissue: Type of Lesion: LARGE INTESTINE: CARCINOMA, Dose [Carcinogen]: 100 MG/KG DEN ONCE, 20 MG/KG MNU 4 TIMES, 40 MG/KG DMH 4 TIMES, 0.05% BBN IN DRINKING WATER FOR 2 WK, 0.1% DHPN IN D, Dose [Carcinogen]: 100 MG/KG DEN ONCE, 20 MG/KG MNU 4 TIMES, 40 MG/KG DMH 4 TIMES, 0.05% BBN IN DRINKING WATER FOR 2 WK, 0.1% DHPN IN D, Promoter: NONE USED).
